Measurements as given in patent US9580426B2, “Compounds that expand hematopoietic stem cells” (Novartis AG, priority 2008, dated 2017).

Test system: Primary adult CD34+ human hematopoietic stem cells (HSCs)
Test: % CD34+ assay: HSC expansion screen, dose response
Format: cell-based
Conditions: Homo sapiens, Hematopoietic stem cell; dose response 1 nM to 10 μM; total number and/or percent of CD34+ cells
Protocol: Primary adult CD34^+ human hematopoietic stem cells (HSCs) are cultured and screened to identify compounds of the invention that facilitate HSC expansion. The cells are analyzed for the presence of the desired phenotype (CD34 expression). Compounds of the invention promote HSC expansion in a dose dependent manner.
Culture Medium: StemSpan SFEM medium is serum-free medium (StemCell Technologies, Vancouver, BC) supplemented with the following human recombinant cytokines: thrombopoietin, interleukin-6, Flt-3 ligand, and stem cell factor (all from R&D Systems, Minneapolis, Minn.), each at a final concentration of 50 ng/mL, with vehicle (DMSO) or a compound of the invention.
Human Cell Culture: Fresh human leukophoresed G-CSF mobilized peripheral blood from normal donors, CD34^+ cells from adult bone marrow and cryopreserved human cord blood CD34^+ cells are purchased from AllCells (Berkeley, Calif.). Human CD34^+ cells are enriched from leukophoresed G-CSF mobilized peripheral blood using magnetic cell sorting (MACS, Direct CD34 Progenitor Cell Isolation Kit, Miltenyi Biotec, Bergisch Gladbach, Germany) and cryopreserved. CD34^+ cell purity, checked by flow Cytometry, is higher than 90%. After thawing, the cell viability tested by trypan blue exclusion is higher than 70%. The thawed cells are centrifuged and resuspended with StemSpan medium before being aliquoted for immediate culture. Cells are plated at 10^4 cells/mL in a 384 well plate (Greiner Bio-One, Monroe, N.C.) with 50 μL of medium per well for 7 days. Every 7 days the cells are transferred to larger well plates and fresh medium is added to keep the cell density between 10^4 and 5×10^5 cells/mL. Cells were cultured at 37° C. in 5% CO2. For transplantation, cells were cultured in 75 cm^2 flasks before the cells were transplanted into mice. At a concentration of 1 micromolar, 4-(2-(2-(benzo[b]thiophen-3-yl)-9-isopropyl-9H-purin-6-ylamino)ethyl)phenol (compound 1, table 1; example 1), 4-(2-(2-(benzo[b]thiophen-3-yl)-9-sec-butyl-9H-purin-6-ylamino)ethyl)phenol (compound 2, table 1), and N-(2-(1H-indol-3-yl)ethyl)-2-(benzo[b]thiophen-3-yl)-9-isopropyl-9H-purin-6-amine (compound 9, table 1) each gives rise to a greater than 10-fold increase in the number of CD34^+ CD45RA^− cells derived from 1000 mPB CD34^+ HSCs after 21 days compared to vehicle. Compounds of the invention were assayed in a dose response format (1 nM to 10 μM) to determine the effective concentration that produced the desired effect in 50% of the cells (EC50).

| Compound | EC50 [µM] |
| --- | --- |
| CC(C)n1cnc2c(NCCc3ccc(OS(N)(=O)=O)cc3)nc(-c3cccnc3)nc21 [Example 114] | 1.1 |
| CC(C)n1cnc2c(NCCc3ccc(O)cc3)nc(-c3cccnc3F)nc21 [Example 118] | 0.45 |
| CC(C)n1cnc2c(NCCc3ccc(O)cc3)nc(-c3cccn3C)nc21 [Example 119] | 1.4 |
| CC(C)n1cnc2c(NCCc3ccc(O)cc3)nc(-c3cncs3)nc21 [Example 120] | 1.4 |
| CC(C)n1cnc2c(NCCc3ccc(O)cc3)nc(-n3cnc4ccccc43)nc21 [Example 121] | 0.086 |
| Cc1nccn1-c1nc(NCCc2ccc(O)cc2)c2ncn(C(C)C)c2n1 [Example 123, 4-(2-(9-Isopropyl-2-(2-methyl-1H-imidazol-1-yl)-9H-purin-6-ylamino)ethyl)phenol] | 0.066 |
| CCC(C)n1cnc2c(NCCc3ccc(O)c(C)c3)nc(-c3cncc(C#N)c3)nc21 (stereo not drawn) [Example 124] | 0.003 |
| Cc1cc(CCNc2nc(-c3cccnc3)nc3c2ncn3C(C)C)n[nH]1 [Example 126] | 5 |
| Oc1ccc(CCNc2nc(-c3cncc(F)c3)nc3c2ncn3C2COC2)cc1 [Example 127] | 0.47 |
| CC(C)n1cnc2c(NCCc3ccc(O)cc3)nc(-c3cncc(Cl)c3)nc21 [Example 128, 4-(2-(2-(5-Chloropyridin-3-yl)-9-isopropyl-9H-purin-6-ylamino)ethyl)phenol] | 0.019 |
| CC(C)n1cnc2c(NCCc3ccc(O)cc3)nc(-c3cncc(C(F)(F)F)c3)nc21 [Example 129] | 0.12 |
| CCC(C)n1cnc2c(NCCc3c[nH]c4ccccc34)nc(-c3cncc(C#N)c3)nc21 (stereo not drawn) [Example 130] | 0.001 |
| CC[C@@H](C)n1cnc2c(NCCc3c[nH]c4ccccc34)nc(-c3cncc(C)c3)nc21 [Example 131R] | 0.003 |
| CC[C@H](C)n1cnc2c(NCCc3c[nH]c4ccccc34)nc(-c3cncc(C)c3)nc21 [Example 131S] | 0.003 |
| CCC(C)n1cnc2c(NCCc3c[nH]c4ccccc34)nc(-c3cncc(C)c3)nc21 (stereo not drawn) [Example 131] | 0.004 |
| CC[C@@H](C)n1cnc2c(NCCc3c[nH]c4ccccc34)nc(-c3cncc(F)c3)nc21 [Example 132R] | 0.001 |
| CC[C@H](C)n1cnc2c(NCCc3c[nH]c4ccccc34)nc(-c3cncc(F)c3)nc21 [Example 132S] | 0.002 |
| CCC(C)n1cnc2c(NCCc3c[nH]c4ccccc34)nc(-c3cncc(F)c3)nc21 (stereo not drawn) [Example 132] | 0.003 |
| N#Cc1cncc(-c2nc(NCCc3ccc(O)cc3)c3ncn(C4COC4)c3n2)c1 [Example 133] | 0.18 |
| CC(C)n1ncc2c(NCCc3ccc(O)cc3)nc(-c3csc4ccccc34)nc21 [Example 135] | 0.38 |

| Compound | EC50 [µM] |
| --- | --- |
| Cc1cc(O)ccc1CCNc1nc(-c2cccnc2)nc2c1ncn2C(C)C [Example 138] | 0.4 |
| CC(C)n1cnc2c(NCCc3ccc(O)cc3)nc(-c3ccc(C#N)nc3)nc21 [Example 139] | 1.3 |
| CC(C)n1cnc2c(NCCc3ccc(O)cc3)nc(-c3cnccc3C#N)nc21 [Example 140] | 0.091 |
| CC(C)n1ccc2c(NCCc3ccc(O)cc3)nc(-c3cncc(F)c3)nc21 [Example 141, 4-(2-(2-(5-Fluoropyridin-3-yl)-7-isopropyl-7H-pyrrolo[2,3-d]pyrimidin-4-ylamino)ethyl)phenol] | 0.16 |
| CC(C)n1cnc2c(NCCc3ccc(O)cc3)nc(-c3cccnc3C#N)nc21 [Example 143] | 4.3 |
| Cc1ccc(-c2nc(NCCc3ccc(O)cc3)c3ncn(C(C)C)c3n2)cn1 [Example 144] | 0.16 |
| CC(C)n1cnc2c(NCCc3ccc(O)cc3)nc(-c3cncc4ccccc34)nc21 [Example 145] | 5.4 |
| CC(C)n1cnc2c(NCCc3ccc(O)c(Cl)c3)nc(-c3cccnc3)nc21 [Example 146] | 0.24 |
| CC(C)n1cnc2c(NCCc3ccc(O)cc3F)nc(-c3cccnc3)nc21 [Example 147] | 0.092 |
| CC(C)n1cnc2c(NCCc3c[nH]c4ccc(Cl)cc34)nc(-c3cccnc3)nc21 [Example 148] | 0.75 |
| CC(C)n1cnc2c(NCCc3c[nH]c4ccc(F)cc34)nc(-c3cccnc3)nc21 [Example 149] | 0.52 |
| Cc1cc(CCNc2nc(-c3cccnc3)nc3c2ncn3C(C)C)ccc1O [Example 150] | 0.057 |
| Oc1ccc(CCNc2nc(-c3csc4ccccc34)nc3c2ncn3C2COC2)cc1 [Example 151] | 0.17 |
| Oc1ccc(CCNc2nc(-c3csc4ccccc34)nc3c2ncn3[C@H]2CCOC2)cc1 [Example 152] | 0.35 |
| Oc1ccc(CCNc2nc(-c3csc4ccccc34)nc3c2ncn3[C@@H]2CCOC2)cc1 [Example 153, (R)-4-(2-(2-(benzo[b]thiophen-3-yl)-9-(tetrahydrofuran-3-yl)-9H-purin-6-ylamino)ethyl)phenol] | 0.22 |
| CC(CO)n1cnc2c(NCCc3c[nH]c4ccccc34)nc(-c3cncc(F)c3)nc21 (stereo not drawn) [Example 157, 2-(6-(2-(1H-indol-3-yl)ethylamino)-2-(5-fluoropyridin-3-yl)-9H-purin-9-yl)propan-1-ol] | 0.005 |
| C[C@H](CO)n1cnc2c(NCCc3c[nH]c4ccccc34)nc(-c3cncc(F)c3)nc21 [Example 157R, (R)-2-(6-(2-(1H-indol-3-yl)ethylamino)-2-(5-fluoropyridin-3-yl)-9H-purin-9-yl)propan-1-ol] | 0.008 |
| C[C@@H](CO)n1cnc2c(NCCc3c[nH]c4ccccc34)nc(-c3cncc(F)c3)nc21 [Example 157S, (S)-2-(6-(2-(1H-indol-3-yl)ethylamino)-2-(5-fluoropyridin-3-yl)-9H-purin-9-yl)propan-1-ol] | 0.003 |
| Fc1cncc(-c2nc(NCCc3c[nH]c4ccccc34)c3ncn([C@@H]4CCOC4)c3n2)c1 [Example 158] | 0.012 |
| CC(C)n1cnc2c(NCCc3ccc(O)cc3)nc(-n3cnc4cccnc43)nc21 [Example 159] | 0.59 |

| Compound | EC50 [µM] |
| --- | --- |
| CC(C)n1cnc2c(NCCc3ccc(O)cc3)nc(-n3cnc4ncccc43)nc21 [Example 160] | 1.9 |
| CC(C)n1cnc2c(NCCc3ccc(O)cc3)nc(-c3cncc(F)c3)cc21 [Example 161, 4-(2-(6-(5-Fluoropyridin-3-yl)-1-isopropyl-1H-imidazo[4,5-c]pyridin-4-ylamino)ethyl)phenol] | 0.17 |
| Cc1ncn(-c2nc(NCCc3ccc(O)cc3)c3ncn(C(C)C)c3n2)c1C [Example 162] | 0.14 |
| CC(C)n1cnc2c(NCCc3cccnc3)nc(-c3cncc(F)c3)nc21 [Example 166] | 7.5 |
| CC(C)n1cnc2c(NCC(O)c3ccc(O)cc3)nc(-c3cncc(F)c3)nc21 (stereo not drawn) [Example 167] | 0.29 |
| COc1ccc2c(CCNc3nc(-c4cncc(F)c4)nc4c3ncn4C(C)C)c[nH]c2c1 [Example 169] | 0.044 |
| CC(C)n1cnc2c(NCCc3c[nH]c4ccccc34)nc(-c3cncc(F)c3)nc21 [Example 170] | 0.006 |
| COc1ccc2[nH]cc(CCNc3nc(-c4cncc(F)c4)nc4c3ncn4C(C)C)c2c1 [Example 172] | 0.42 |
| C=C(C)n1cnc2c(NCCc3c[nH]c4ccccc34)nc(-c3cncc(F)c3)nc21 [Example 173] | 0.012 |
| CC(C)n1cnc2c(NCCc3ccc(O)nc3)nc(-c3cncc(F)c3)nc21 [Example 174] | 2.2 |
| CC(C)n1cnc2c(NCCc3c[nH]c4ncccc34)nc(-c3cncc(F)c3)nc21 [Example 175] | 0.42 |
| CCN(CC)CCOc1ccc2c(CCNc3nc(-c4cncc(F)c4)nc4c3ncn4C(C)C)c[nH]c2c1 [Example 176] | 1.1 |
| CC(C)n1cnc2c(NCCc3ccc(O)cc3)cc(-c3cncc(F)c3)nc21 [Example 177, 4-(2-(5-(5-Fluoropyridin-3-yl)-3-isopropyl-3H-imidazo[4,5-b]pyridin-7-ylamino)ethyl)phenol] | 0.14 |
| CCC(C)n1cnc2c(NCCc3c[nH]c4ccccc34)nc(-n3ccnc3C)nc21 (stereo not drawn) [Example 178] | 0.003 |
| CCc1nccn1-c1nc(NCCc2ccc(O)cc2)c2ncn(C(C)C)c2n1 [Example 180] | 0.13 |
| CCCc1nccn1-c1nc(NCCc2ccc(O)cc2)c2ncn(C(C)C)c2n1 [Example 181] | 2.5 |
| CC(C)n1cnc2c(NCCc3c[nH]c4cc(O)ccc34)nc(-c3cncc(F)c3)nc21 [Example 182] | 5.1 |
| Cc1cncc(-c2nc(NCCc3c[nH]c4ccccc34)c3ncn(C(C)C)c3n2)c1 [Example 183] | 0.01 |
| Cc1nccn1-c1nc(NCCc2c[nH]c3ccccc23)c2ncn(C(C)C)c2n1 [Example 184] | 0.008 |
| Cc1cccc2c(CCNc3nc(-c4cncc(F)c4)nc4c3ncn4C(C)C)c[nH]c12 [Example 185] | 0.024 |
